For one series, the target named is CYP3A4 (Homo sapiens, UniProt P08684). Nature of the series: Cytochrome P450 (CYP450) Inhibition Assay, CYP3A4 (Vivid fluorescence, BOMCC substrate). The following applies: for inhibition at 10 µM: human, P450 Baculosomes (recombinant CYP3A4), probe BOMCC (Vivid substrate).

Counter-ions that a name gives are not always drawn. A value given as a limit tells only on which side of the number the result lay.

Sequence of CYP3A4 (P08684 whole entry): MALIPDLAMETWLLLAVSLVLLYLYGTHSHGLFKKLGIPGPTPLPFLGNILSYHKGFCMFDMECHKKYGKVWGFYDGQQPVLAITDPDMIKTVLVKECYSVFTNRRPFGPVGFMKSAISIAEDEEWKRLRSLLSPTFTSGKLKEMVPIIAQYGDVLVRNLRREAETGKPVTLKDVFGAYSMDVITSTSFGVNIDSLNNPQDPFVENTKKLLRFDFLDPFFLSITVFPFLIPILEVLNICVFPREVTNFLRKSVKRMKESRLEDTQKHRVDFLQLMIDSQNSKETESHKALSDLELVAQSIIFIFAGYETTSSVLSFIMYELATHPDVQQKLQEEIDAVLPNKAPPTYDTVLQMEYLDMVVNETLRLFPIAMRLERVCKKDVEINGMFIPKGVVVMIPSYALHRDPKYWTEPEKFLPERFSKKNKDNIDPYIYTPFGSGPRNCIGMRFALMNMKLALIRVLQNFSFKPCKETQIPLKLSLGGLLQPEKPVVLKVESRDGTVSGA

The term melting point denotes the temperature of the solid-liquid transition. In the case of `Cc1noc2cc3c(cc12)C1(CO3)C(=O)N(Cc2ccc(-c3cc(N)n[nH]3)cc2)c2ccccc21` (stereo not shown) (as salt: hydrochloride) [Example 29.1, 1′-[4-(3-amino-1H-pyrazol-5-yl)benzyl]-3-methylspiro[furo[3,2-f][1,2]benzisoxazole-5,3′-indol]-2′(1′H)-one hydrochloride], the melting point was 191 to 195 °C.
The same measure, in the same setting: as for `Nc1cc(-c2ccc(CN3C(=O)C4(COc5cc6c(cc54)OCCO6)c4ccccc43)cc2)[nH]n1` (stereo not shown) (as salt: hydrochloride) [Example 29.2, 1′-[4-(3-amino-1H-pyrazol-5-yl)benzyl]-2,3-dihydrospiro[furo[2,3-g][1,4]benzodioxine-8,3′-indol]-2′(1′H)-one hydrochloride], the figure is 198 to 201 °C; as for `O=C1N(Cc2ccc(N[C@@H]3CCNC3)cc2)c2ccccc2C12COc1cc(F)c(F)cc12` (stereo partly drawn) (as salt: hydrochloride) [Example 33.2, 5,6-difluoro-1′-{4-[(3R)-pyrrolidin-3-ylamino]benzyl}spiro[1-benzofuran-3,3′-indol]-2′(1′H)-one hydrochloride], 153 to 162 °C.
As a reminder, the inhibition is the drop in the measured response relative to a control, in per cent. For `O=C1N(Cc2cc3ccccc3o2)c2ccccc2C12COc1cc3c(cc12)OCO3` (stereo not shown) [Example 1.8, 1′-(1-benzofuran-2-ylmethyl)spiro[furo[2,3-f][1,3]-benzodioxole-7,3′-indol]-2′(1′H)-one], the melting point lay within 167 to 168 °C. For the same compound, the inhibition at 10 µM at CYP3A4 was more than 50%.
In turn, `O=C1N(C(c2ccccc2)c2ccccc2)c2ccc(F)cc2C12COc1cc3c(cc12)CCO3` (stereo not shown) [Example 2.4, 1′-(diphenylmethyl)-5′-fluoro-5,6-dihydrospiro[benzo[1,2-b:5,4-b′]difuran-3,3′-indol]-2′(1′H)-one] yielded a melting point of 228 to 229 °C.
Still for that read-out and setting: the same measure for `O=C1N(C(c2ccccc2)c2ccccc2)c2cc(F)ccc2C12COc1cc3c(cc12)CCO3` (stereo not shown) [Example 2.5, 1′-(diphenylmethyl)-6′-fluoro-5,6-dihydrospiro[benzo[1,2-b:5,4-b′]difuran-3,3′-indol]-2′(1′H)-one]: 194 to 196 °C.
Consider `O=C1N(C(c2ccccc2)c2ccccc2)c2ccccc2C12COc1cc3c(cc12)CCCO3` (stereo not shown) [Example 2.12, 1′-(diphenylmethyl)-6,7-dihydro-5H-spiro[furo[3,2-g]chromene-3,3′-indol]-2′(1′H)-one], for which the melting point lay in the range of 208 to 211 °C.
The same measure, in the same setting: as for `O=C1N(C(c2ccccc2)c2ccccc2)c2ccccc2C12COc1cc3c(cc12)OCCCO3` (stereo not shown) [Example 2.13, 1′-(diphenylmethyl)-3,4-dihydro-2H-spiro[furo[2,3-h][1,5]benzodioxepine-9,3′-indol]-2′(1′H)-one], the figure is 165 to 168 °C.
On the same count and under the same terms, the same measure for `Cc1ccc(F)c2c1N(C(c1ccccc1)c1ccccc1)C(=O)C21COc2cc3c(cc21)CCO3` (stereo not shown) [Example 2.19, 1′-(diphenylmethyl)-4′-fluoro-7′-methyl-5,6-dihydrospiro[benzo[1,2-b:5,4-b′]difuran-3,3′-indol]-2′(1′H)-one]: 81 to 82 °C; for `O=C1N(C(c2ccccc2)c2ccccc2)c2c(F)cccc2C12COc1cc3c(cc12)CCO3` (stereo not shown) [Example 2.20, 1′-(diphenylmethyl)-7′-fluoro-5,6-dihydrospiro[benzo[1,2-b:5,4-b′]difuran-3,3′-indol]-2′(1′H)-one]: 183 to 184 °C.
`CN1C(=O)C2(COc3cc4c(cc32)OCCO4)c2c(C(=O)Oc3ccccc3)cccc21` (stereo not shown) [Example 2.53, phenyl 1′-methyl-2′-oxo-1′,2,2′,3-tetrahydrospiro[furo[2,3-g][1,4]benzodioxine-8,3′-indole]-4′-carboxylate] gave a melting point of 184 to 186 °C. The inhibition at 10 µM at CYP3A4 is more than 50%.
For `O=C1Nc2ccccc2C12COc1ccc3c(c12)OCCO3` (stereo not shown) [Example 3.43, 2,3-dihydrospiro[furo[3,2-f][1,4]benzodioxine-9,3′-indol]-2′(1′H)-one], the melting point was 259 to 261 °C.
`O=C1N(Cc2ccc(Br)cc2)c2ccccc2C12COc1cc3c(cc12)OCO3` (stereo not shown) [Example 4.1, 1′-(4-bromobenzyl)spiro[furo[2,3-f][1,3]benzodioxole-7,3′-indol]-2′(1′H)-one] gave a melting point of 148 to 150 °C.
Same read-out and setting: the same measure for `C[n+]1c(Cl)c[nH]c1CN1C(=O)C2(COc3cc4c(cc32)OCCO4)c2ccccc21` (stereo not shown) [Example 4.39, 1′-[(5-chloro-1-methyl-1H-imidazol-2-yl)methyl]-2,3-dihydrospiro[furo[2,3-g][1,4]benzodioxine-8,3′-indol]-2′(1′H)-one]: 91 to 95 °C.
As for `Cl.O=C1N(Cc2ccccn2)c2ccccc2C12COc1cc3c(cc12)OCCO3` (stereo not shown) [Example 4.42, 1′-(pyridin-2-ylmethyl)-2,3-dihydrospiro[furo[2,3-g][1,4]benzodioxine-8,3′-indol]-2′(1′H)-one hydrochloride], the melting point is 206 to 208 °C. For the same compound, the “% Inhibition of CYP3A4” value at CYP3A4 (CYP3A4 isozyme, at 10 μM) is reported as “A (percent inhibition of less than 50% at 10 μM)”.
`Cc1ccc2c(c1)C1(COc3cc4c(cc31)OCCO4)C(=O)N2Cc1ncccc1C(F)(F)F` (stereo not shown) [Example 4.115, 5′-methyl-1′-{[3-(trifluoromethyl)pyridin-2-yl]methyl}-2,3-dihydrospiro[furo[2,3-g][1,4]benzodioxine-8,3′-indol]-2′(1′H)-one] returned a melting point of 137 to 139 °C.
For `O=C1N(Cc2cccc(C(F)(F)F)n2)c2ccccc2C12COc1cc3c(cc12)OCCO3` (stereo not shown) [Example 5.9, 1′-{[6-(trifluoromethyl)pyridin-2-yl]methyl}-2,3-dihydrospiro[furo[2,3-g][1,4]benzodioxine-8,3′-indol]-2′(1′H)-one], the melting point lay in the range of 195 to 196 °C. Besides, at CYP3A4, the inhibition at 10 µM is more than 50%.
In the same order, the values of `O=C1N(Cc2cccnc2C(F)(F)F)c2ccccc2C12COc1cc3c(cc12)OCCO3` (stereo not shown) [Example 5.10, 1′-{[2-(trifluoromethyl)pyridin-3-yl]methyl}-2,3-dihydrospiro[furo[2,3-g][1,4]benzodioxine-8,3′-indol]-2′(1′H)-one] are 219 to 220 °C and less than 50%.
For `O=C1N(Cc2nccnc2C(F)(F)F)c2ccccc2C12COc1cc3c(cc12)OCCO3` (stereo not shown) [Example 5.11, 1′-{[3-(trifluoromethyl)pyrazin-2-yl]methyl}-2,3-dihydrospiro[furo[2,3-g][1,4]benzodioxine-8,3′-indol]-2′(1′H)-one], in that order: 230 to 232 °C and less than 50%.
As for `O=C1N(Cc2cnccc2C(F)(F)F)c2ccccc2C12COc1cc3c(cc12)OCCO3` (stereo not shown) [Example 5.12, 1′-{[4-(trifluoromethyl)pyridin-3-yl]methyl}-2,3-dihydrospiro[furo[2,3-g][1,4]benzodioxine-8,3′-indol]-2′(1′H)-one], the melting point is 131 to 132 °C. Besides, at CYP3A4, the inhibition at 10 µM was more than 50%.
For `N#CCN1C(=O)C2(COc3cc4c(cc32)OCCO4)c2ccccc21` (stereo not shown) [Example 5.24, (2′-oxo-2,3-dihydrospiro[furo[2,3-g][1,4]benzodioxine-8,3′-indol]-1′(2′H)-yl)acetonitrile], the melting point was in the range of 161 to 162 °C.
Same read-out and setting: as for `COc1ccc(CN2C(=O)C3(COc4cc5c(cc43)OCO5)c3ccccc32)cc1` (stereo not shown) [Example 7, 1′-(4-methoxybenzyl)spiro[furo[2,3-f][1,3]benzodioxole-7,3′-indol]-2′(1′H)-one], the figure is 147 to 148 °C; as for `CCCCCN1C(=O)[C@@]2(COc3cc4c(cc32)OCCO4)c2ccccc21` [Example 7.3, (S)-1-pentyl-2,3-dihydrospiro[furo[2,3-g][1,4]benzodioxine-8,3′-indol]-2′(1′H)-one], 111 to 113 °C.
Same read-out and setting: the same measure for `O=C1N(C[C@@H]2CCCN2)c2ccccc2C12COc1cc3c(cc12)CCO3` (stereo partly drawn) [Example 11.11, 1′-[(2S)-pyrrolidin-2-ylmethyl]-5,6-dihydrospiro[benzo[1,2-b:5,4-b′]difuran-3,3′-indol]-2′(1′H)-one]: 83 to 86 °C; for `CC(C)NC(=O)N1CCC(CN2C(=O)C3(COc4cc5c(cc43)CCO5)c3ccccc32)C1` (stereo not shown) [Example 11.62, N-(1-methylethyl)-3-[(2′-oxo-5,6-dihydrospiro[benzo[1,2-b:5,4-b′]difuran-3,3′-indol]-1′(2′H)-yl)methyl]pyrrolidine-1-carboxamide]: 107 to 115 °C; for `O=C(O)CN1C(=O)C2(COc3cc4c(cc32)OCCO4)c2ccccc21` (stereo not shown) [Example 11.76, (2′-oxo-2,3-dihydrospiro[furo[2,3-g][1,4]benzodioxine-8,3′-indol]-1′(2′H)-yl)acetic acid]: 193 to 196 °C.
Still for that read-out and setting: as for `Cc1noc2cc3c(cc12)C1(CO3)C(=O)N(Cc2nc(C(=O)N(C)C)co2)c2ccccc21` (stereo not shown) [Example 13.9, N,N-dimethyl-2-[(3-methyl-2′-oxospiro[furo[3,2-f][1,2]benzisoxazole-5,3′-indol]-1′(2′H)-yl)methyl]-1,3-oxazole-4-carboxamide], the figure is 87 to 89 °C; as for `CN1C(=O)C2(COc3cc4c(cc32)OCCO4)c2c(C(=O)NC3CC3)cccc21` (stereo not shown) [Example 16.40, N-cyclopropyl-1′-methyl-2′-oxo-1′,2,2′,3-tetrahydrospiro[furo[2,3-g][1,4]benzodioxine-8,3′-indole]-4′-carboxamide], 127 to 128 °C; as for `CN1C(=O)C2(COc3cc4c(cc32)OCCO4)c2c(C(N)=O)cccc21` (stereo not shown) [Example 16.72, 1′-methyl-2′-oxo-1′,2,2′,3-tetrahydrospiro[furo[2,3-g][1,4]benzodioxine-8,3′-indole]-4′-carboxamide], more than 250 °C.
The compound `CNC(=O)c1cccc2c1C1(COc3cc4c(cc31)OCCO4)C(=O)N2C` (stereo not shown) [Example 16.76, N,1′-dimethyl-2′-oxo-1′,2,2′,3-tetrahydrospiro[furo[2,3-g][1,4]benzodioxine-8,3′-indole]-4′-carboxamide] came in with a melting point of 120 to 122 °C.

These data come from patent US8263606B2 (Xenon Pharmaceuticals Inc., priority 2008, dated 2012).
